The results in this text go back to the NIST ThermoML archive (doi:10.1016/j.jct.2005.08.001).

± gives the expanded uncertainty stated by the source.

The conditions of data set [1]: 313.15 K, Liquid; for vapor or sublimation pressure: Closed cell (Static) method; for mass density: 101.33 kPa, Pycnometric method.
Data set [2] can be described thus: refractive index (Na D-line) (dimensionless). Conditions: 298.15 K; 101.33 kPa; Liquid; Standard Abbe refractometry.

As a reminder, the vapor or sublimation pressure is the pressure of vapour in equilibrium with the condensed phase. A word on the refractive index: it is the speed of light in vacuum divided by its phase velocity in the sample. As a reminder, the mass density is mass per unit of volume.

In the case of `O` [water], in data set [1], the “vapor or sublimation pressure” value is reported as 7.375 ± 0.025 kPa.
Consider `CC(=O)N(C)C` [N,N-dimethylethanamide], for which the refractive index in data set [2] came out at 1.43556 ± 0.00075. Also, in data set [1], the mass density is on record as 922.4 ± 0.6 kg/m3 and the “vapor or sublimation pressure” value worked out at 0.658 ± 0.01 kPa.
For the molecule `CCO` [ethanol], in data set [2], the refractive index amounted to 1.3592 ± 0.00075. Besides, in data set [1], the mass density is reported as 772.2 ± 0.5 kg/m3 and the “vapor or sublimation pressure” value turned out to be 17.89 ± 0.087 kPa.
